The assay deals with pituitaries removed from 20 day old female rats. Briefly: In vitro growth hormone release study (incubated rat pituitaries, GH radioimmunoassay). The assay is classed as cell-based. The conditions noted are these: two pituitaries in 1 ml lactated Ringer's, 36° C., ± SEM. As to the method: Female rats of the CD-1 strain were housed in a constant temperature room at 24° C. with 14 hours light and 10 hours darkness. The rats were fed Purina brand rat chow ab libitum.
All studies were started between 0800 and 1000 hours.
Pituitaries were removed from 20 day old female rats. Two pituitaries were incubated at 36° C. in 1 ml of lactated Ringer's solution in 10 ml polytetrafluoroethylene beakers in a Dubnoff Shaker (90 cycles/min.). The pituitaries were incubated a total of 4 hours (P1, P2, I3, and I4). After two successive one hour preincubation periods (P1, P2), the peptide was added to the incubation medium hourly for 2 hours (I3, I4).
This in vitro study was performed in triplicate and a standard radioimmunoassay of growth hormone present in the incubation medium was performed in duplicate. The hormonal activity was calculated as the difference (Δ) of growth hormone (GH) levels between I3, I4 and P2, i.e., (I3 -P2) and (I4 -P2). P values were calculated by Students' t test using six growth hormone values for each value recorded.
The growth hormone radioimmunoassay reagents were distributed by the National Institute of Arthritis and […] (NIAMDD) program. The growth hormone values were calculated in terms of nanograms (ng) of a rat standard with a growth hormone potency of 0.61 units/mg.

SMILES strings stand for the structures. Non-standard residues stand in square brackets, D forms with d. Residues, ends and D or L forms follow the SMILES beside them.

On to `CSCC[C@H](NC(=O)[C@H](Cc1ccccc1)NC(=O)[C@@H](Cc1c[nH]c2ccccc12)NC(=O)[C@@H](Cc1c[nH]c2ccccc12)NC(=O)[C@@H](N)Cc1ccc(O)cc1)C(N)=O` [H2 N-Tyr-D-Trp-D-Trp-Phe-Met-CONH2] (H-Y[dW][dW]FM-NH2), for which the “In vitro growth hormone release (ΔGH, I3-P2 and I4-P2)” value by setting is: (1μg peptide, P <0.001) 1697 ± 222 ngΔGH/ml incubation medium; (20μg peptide, P <0.001) 1530 ± 208 ngΔGH/ml incubation medium; (100μg peptide, P ~0.02) 219 ± 113 ngΔGH/ml incubation medium.

Source of the values: US4228158A, “Synthetic peptides having pituitary growth hormone releasing activity” (priority 1979, dated 1980).
